The values below are quoted from earlier work in publication PMC3736096 (Nature, 2013).

As for `COc1ccc(S(=O)(=O)Nc2nc(-c3cccc([N+](=O)[O-])c3)c(CN3CCCCC3)s2)cc1OC` [JM6], the blood-brain barrier penetration result is recorded as “do not appreciably penetrate the blood-brain barrier”.

With `COc1ccc(S(=O)(=O)Nc2nc(-c3cccc([N+](=O)[O-])c3)cs2)cc1OC` [Ro 61-8048, 3,4-dimethoxy-[-N-4-(nitrophenyl)thiazol-2yl]-benzenesulfonamide], the blood-brain barrier penetration entry is recorded as “do not appreciably penetrate the blood-brain barrier”.
